In publication PMC6609562, “A new split‐luciferase complementation assay identifies pentachlorophenol as an inhibitor of apoptosome formation” (FEBS Open Bio, 2019):
Read-outs that look alike come from different tables or passages of the source. One block for each molecule: values may come before it.

Legend:
[1] = tested on: T1, apoptosome (Nluc/Apaf-1 + Cluc/Apaf-1, cytochrome c, dATP); assay: split-luciferase complementation in S-100 extract; format: biochemical, Homo sapiens; details: 1.6 uM cytochrome c, 1 mM dATP, 25 °C; unreliable (reporter interference)
T1 construct: gene APAF1; Apaf-1 XL fused by Gly/Ser linker to firefly luciferase fragments (Nluc 1-416; Cluc 394-550 in legend, 395-550 in methods), expressed in HEK 293, S-100 extract
Text: split-luciferase complementation in S-100 extract on apoptosome (Nluc/Apaf-1 + Cluc/Apaf-1, cytochrome c, dATP)

[2] = tested on: T1, apoptosome (Nluc/Apaf-1 + Cluc/Apaf-1, cytochrome c, dATP); assay: split-luciferase complementation in S-100 extract; format: biochemical, Homo sapiens
cytochrome c = tested on: T2, cytochrome c; assay: thermal stability shift, soluble protein by Coomassie SDS-PAGE; format: binding; details: destabilization at 58 °C, 1 mg/mL cytochrome c
T2 construct: gene CYCS

[3] = molecular target: T3, Cluc-Apaf1 (Apaf-1 XL fused to the C-terminal fragment of firefly luciferase) (human), O14727; assay: split reporter (BiFC, NanoBiT); split firefly luciferase complementation; ice-cold S-100 extracts of Nluc-Apaf1 and Cluc-Apaf1 cells mixed 1:1, with and without 1.6 μM cytochrome c and 1 mM dATP (cytochrome c titrated in one experiment); One-Glo Luciferase Assay System, light read at 25 °C over 15 min; details: remark: other sources report otherwise
T3 chain: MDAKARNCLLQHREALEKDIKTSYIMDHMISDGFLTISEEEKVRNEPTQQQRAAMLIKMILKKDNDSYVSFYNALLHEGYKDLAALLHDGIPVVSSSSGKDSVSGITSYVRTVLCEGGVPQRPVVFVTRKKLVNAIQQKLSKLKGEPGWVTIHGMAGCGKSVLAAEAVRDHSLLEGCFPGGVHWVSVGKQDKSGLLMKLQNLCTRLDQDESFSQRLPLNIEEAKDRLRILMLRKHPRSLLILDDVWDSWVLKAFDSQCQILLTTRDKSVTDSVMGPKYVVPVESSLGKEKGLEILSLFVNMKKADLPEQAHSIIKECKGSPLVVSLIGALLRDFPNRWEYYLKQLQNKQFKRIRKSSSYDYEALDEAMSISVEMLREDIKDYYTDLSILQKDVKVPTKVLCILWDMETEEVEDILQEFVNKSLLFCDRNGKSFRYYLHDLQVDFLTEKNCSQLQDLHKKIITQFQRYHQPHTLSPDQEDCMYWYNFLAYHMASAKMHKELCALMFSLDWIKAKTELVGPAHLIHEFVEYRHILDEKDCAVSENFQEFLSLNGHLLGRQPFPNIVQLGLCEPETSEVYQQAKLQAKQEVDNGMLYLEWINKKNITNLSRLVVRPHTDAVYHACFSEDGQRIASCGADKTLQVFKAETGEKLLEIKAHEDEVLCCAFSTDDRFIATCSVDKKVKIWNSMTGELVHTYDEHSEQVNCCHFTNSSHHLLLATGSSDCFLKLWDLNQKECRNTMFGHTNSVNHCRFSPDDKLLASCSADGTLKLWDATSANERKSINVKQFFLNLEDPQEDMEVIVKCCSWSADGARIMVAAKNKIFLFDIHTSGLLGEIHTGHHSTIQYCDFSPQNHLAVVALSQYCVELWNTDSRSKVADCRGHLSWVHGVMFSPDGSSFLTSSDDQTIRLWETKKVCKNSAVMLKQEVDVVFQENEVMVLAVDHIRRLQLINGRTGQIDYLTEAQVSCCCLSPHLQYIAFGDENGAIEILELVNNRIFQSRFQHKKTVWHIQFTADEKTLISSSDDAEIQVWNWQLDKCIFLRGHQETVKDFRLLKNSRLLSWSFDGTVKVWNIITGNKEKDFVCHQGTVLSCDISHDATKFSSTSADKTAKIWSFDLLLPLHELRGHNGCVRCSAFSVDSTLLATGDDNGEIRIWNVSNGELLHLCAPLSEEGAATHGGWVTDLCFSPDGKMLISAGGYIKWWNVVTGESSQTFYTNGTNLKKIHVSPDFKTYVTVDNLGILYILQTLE

Molecule: Clc1nc(Cl)nc(Nc2ccccc2Cl)n1 [Anilazine]
IC50 (mM) / S. luc [1]: 2.99 mM

IC50 ([2]; diluted extract, cytochrome c and dATP added, read-out: IC50): ~0.17 mM
Molecule: O=C(Nc1cccc(C(F)(F)F)c1)Nc1cc(Cl)ccc1C(=O)O [NS3694, 4‐chloro‐2‐[[3‐(trifluoromethyl)phenyl]carbamoylamino]benzoic acid]

Molecule: CN(C)C(=S)SSC(=S)N(C)C [Thiram]
IC50 (mM) / S. luc [1]: 1.38 mM

Molecule: CN(C)C1CSSSC1 [Thiocyclam]
IC50 (mM) / S. luc [1]: 0.20 mM

Molecule: Oc1c(Cl)c(Cl)c(Cl)c(Cl)c1Cl [Pentachlorophenol]
IC50 ([2]; 1.6 uM cytochrome c, 1 mM dATP, 25 °C, site assigned to cytochrome c, read-out: IC50 (mM) / S. luc): 0.17 mM | EC50 (cytochrome c): ~600 µM

EC50 of cytochrome c for split luciferase activity [3]: 0.15 µM
B1: Nluc-Apaf1 (Apaf-1 XL fused to the N-terminal fragment of firefly luciferase), O14727-1 1-1248 (natural protein)
chain: T3 chain
